Assays:
[1] = tested on: U87 xenografted human glioblastoma; experiment: Radiosensitization of xenografted human glioblastoma (U87) on nude mice; type: in vivo; conditions: for Number of mice where Tumor volume <4 cm^3 At the day 25 (6 mice per group): 1 nmole/intratumoral injection, total 30 Gy
Excerpt: Radio-sensitization was also observed in mice xenografted with human glioblastoma tumors. The glioblastoma is the highest grade of brain-tumor, and is characterized by its extraordinary aggressive progression with fast fatal outcome and resistance to radio- and chemotherapies. 2-3 millions of U87 cells derived from human glioblastoma was first injected subcutaneously in nude mouse. The grafted tumor was then took out and used to seed subsequently other nude mice by subcutaneous transplant of about 8 mm^3 glioblastoma tumor.
50% mice in the arm which received Dbait32H (SEQ ID NO: 1) (1 nmole) by intratumoral injection and irradiation (1×15 Gy/week or 3×5 Gy/week, followed by one week rest, then second treatment cycle, the total dose of ionizing radiation was 30 Gy) had tumor volume<4 cm^3 at the day 25 after the start of treatment, whereas 100% mice in the control arms (untreated or irradiated and injected with saline solution (PBS) had tumor volume well exceeded 4 cm^3, and were killed before the end of the assay according to current regulation on animal ethics before the end of the treatment.
Table 3.1: Assay of radiosensitization of xenografted human glioblastoma on nude mice by Dbait32H (SEQ ID NO: 1) (1 nmole/intratumoral injection) previously named DRIL32-PEG. Two protocols of irradiation (5 hours after intratumoral injection) were used: 1×15 Gy/week, or 3×5 Gy/week, followed by one week rest, the second treatment cycle. The total irradiation dose was 30 Gy. Control groups were the untreated or the groups received saline solution (PBS) injection.

Hela cells = experiment: Clonogenic survival assay of Hela cells after 4×0.5 Gy irradiation; type: cell-based, human; conditions: 4×0.5 Gy spaced 2 hours, Dbait transfected with Superfect (83 nM or 2 μg)
Experimental: Exponentially growing cells in six-well plates were harvested and incubated with […] of complete DMEM containing a mixture of Dbait molecules and Superfect reagent (Qiagen, Courtaboeuf, France) in a ratio of 10 μl Superfect per μg DNA. After 5 h at 37° C. under standard conditions, the cells were washed with PBS and complete DMEM was added. Where indicated, cells were exposed to irradiation either in one session (10 Gy) 5 h after the beginning of transfection or in four sessions of 0.5 Gy administered with a ^137Cs unit (1 Gy/min) 3, 4, 5 and 6 h after the beginning of transfection and allowed to grow for two weeks. When plasmid integration was measured, 2 μg of plasmid was added to Dbait transfection and puromycin (1.7 μg/ml) was added to the growth medium 48 h after transfection. Plasmid transfection efficiency was estimated by analyzing 10,000 cells for GFP expression on a FACScan flow cytometer (FACSalibur, Beckton-Dickinson, USA).
Upon 8 hours transfection of Dbait molecules in Hela cells and four irradiation with 0.5 Gy fractionated irradiation spaced 2 hours (4×0.5 Gy), performed with γ-rays from a ^137Cs source, a significant reduction of clonogenic survival was observed as compared to untransfected cells. The results are given on FIG. 2.1 wherein Panel A gives the dose-dependence of normalized survival clone number in the presence of Dbait32 (SEQ ID NO: 1) and Dbait32H (SEQ ID NO: 1), and Panel B, the normalized survival clone number in the presence of different Dbait molecules at 83 nM (concentration in culture medium). Cell culture was in MEM supplemented with 10% serum. Superfect (Qiagene) was used as transfection agent according to the manufacturer's instruction.
Clonogenic survival was estimated as the number of treated cells forming colonies on the number of untreated cells.

[2] = tested on: γ-H2AX foci in GMA32 cells; experiment: Immunodetection of γ-H2AX DSB foci in GMA32 cells; type: cell-based, Chinese hamster; conditions: GMA32, Dbait with lipofectamine, no irradiation
Experimental: Under the same conditions, the immunodetection of DSB foci of γ-H2AX phosphorylated on serine 139 by γ-H2AX labeling (bright dots or patches in nuclei) was performed in the untreated GMA32 cells, the cells transfected alone, or transfected with different Dbait molecules by lipofectamine. The counterstaining of cell membranes and nuclei were achieved by FITC-DiOC6 and DAPI. Similar effects of Dbait molecules were observed (FIG. 3.2). […] This provides visual evidence that these Dbait molecules can be used for trapping proteins involved in DSB repair via NHEJ pathway.
For immunodetection, the cells were grown on coverslip in 5 cm diameter Petri dishes 24 hours before the transfection with different Dbait molecules. One day after the transfection, FITC-DiOC6 (Molecular probes) was added in the medium 5 minutes at 37° C. (to counterstain the membranes). After 3 washing cycles, the cells were fixated with 4% PFA for 20 minutes.
After additional washing, γ-H2AX phosphorylated on serine 139 (γ-H2AX) was detected with. rabbit anti-γ-H2AX antibody (4411-PC, Trevigen) diluted 1/100 in 1×PBS, 1% BSA. Cells were washed three times with 1×PBS, 0.5%, TritonX-100, then incubated for 1 hour at room temperature with goat anti-rabbit antibodies Alexa 594 (Molecular Probes) diluted 1/100 in 1×PBS, 1% BSA. Cells were visualized by epifluorescence microscopy.

[3] = tested on: digestive tumors induced in K-Ras^V12G×Apc^1638N transgenic mice; experiment: Chemosensitization of digestive tumors in K-Ras^V12G×Apc^1638N transgenic mice; type: in vivo
Excerpt: An endogenous mouse tumor model was chosen to assess the ability of Dbait molecules to sensitize anticancer chemotherapy. To this end, transgenic mice carrying K-Ras^V12G and Apc^1638N mutations were used. They were obtained by breeding two transgenic mice: one carries K-Ras^V12G mutant under the control of the mouse villin promoter(pVill/K-Ras^V12G) (Janssen et al., 2002), the other contains Apc^1638N mutation in one allele (Fodde et al., 1994). Transgenic mice with pVill/K-Ras^V12G×Apc^1638N mutations developed spontaneous tumors in the digestive tract at the age of about 5 months and died rapidly.
They were treated at the mean age of 12 weeks by a combination of chemotherapy (5FU+CPT11) and of Dbait32H (SEQ ID NO: 1) versus chemotherapy alone, according to the protocol shown in FIG. 5.1 panel A. The protocol includes three treatment cycles.
Each cycle consists of intraperitoneal injection of 0.6 mg 5FU and 0.6 mg CPT11, along with 0.1 mg Dbait32H (SEQ ID NO: 1) by oral administration, three times a week, followed by one week rest.
5FU (5 fluorouracile, Teva) was prepared in 0.9% NaCl solution at the concentration of 50 mg/ml. CPT11/Irinotecan (Campto, Aventis) was prepared in 0.9% NaCl solution at the concentration of 20 mg/ml. The health status and survival of the mice were monitored till the death. […]

With “Dbait32H: hairpin double strand DNA with a stem of 32-bp, hexaethyleneglycol linker, phosphorothioate at the free blunt end (DNA ACGCACGGGTGTTGGGTCGTTTGTTCGGATCT; DNA, backbone not given here; hairpin, hexaethyleneglycol loop, 3-bp phosphorothioate at free blunt end)” the “mice with tumor volume<4 cm^3 at the day 25” value ([1]; 1 nmole intratumoral and irradiation (1×15 Gy/week or 3×5 Gy/week)) was 50%, the “Number of mice where Tumor volume <4 cm^3 At the day 25 (6 mice per group)” value ([1]; 1 × 15 Gy/week) was 3/6 and the “Number of mice where Tumor volume <4 cm^3 At the day 25 (6 mice per group)” value ([1]; 3 × 5 Gy/week) was 3/6. For the same substance, the clonogenic survival (Hela cells) was “significantly reduced clonogenic survival”, the “γ-H2AX DSB foci (cell response)” value [2] was “effectively trigger similar cell response as if DNA damages were occurred in nuclei” and the median survival ([3]; 0.1 mg Dbait32H oral with 0.6 mg 5FU and 0.6 mg CPT11 i.p., three times a week, three cycles) was 226 days. For the same substance, the “reduction of tumor numbers (macroscopy and histology)” value ([3]; 5FU+CPT11 and Dbait32H (n=8) versus chemotherapy alone (n=7), week 18) was > 30%.

From US7476729B2, “Dbait and uses thereof” (Institut Curie, priority 2003, dated 2009)
